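Interpolation was linear, between the two tested concentrations surrounding the appropriate level; five concentrations were tested over 48 hours in 96-well plates. At the GI50, growth is halved. TGI: total growth inhibition.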
How the values were obtained:
Test in all cases: NCI tumour cell line growth inhibition, 48 h
CCRF-CEM leukemia = tested on: CCRF-CEM leukemia
M14 melanoma = tested on: M14 melanoma
MOLT-4 leukemia = tested on: MOLT-4 leukemia
SNB-75 CNS = tested on: SNB-75 CNS
PC-3 prostate = tested on: PC-3 prostate
MCF7 breast = tested on: MCF7 breast
NCI-H460 lung = tested on: NCI-H460 lung
SF-539 CNS = tested on: SF-539 CNS
OVCAR-3 ovarian = tested on: OVCAR-3 ovarian
OVCAR-4 ovarian = tested on: OVCAR-4 ovarian

| SMILES | GI50 (CCRF-CEM leukemia) | TGI (CCRF-CEM leukemia) | GI50 (M14 melanoma) | TGI (M14 melanoma) | GI50 (MOLT-4 leukemia) | TGI (MOLT-4 leukemia) | GI50 (SNB-75 CNS) | TGI (SNB-75 CNS) | GI50 (PC-3 prostate) | TGI (PC-3 prostate) | GI50 (MCF7 breast) | TGI (MCF7 breast) | GI50 (NCI-H460 lung) | TGI (NCI-H460 lung) | GI50 (SF-539 CNS) | TGI (SF-539 CNS) | GI50 (OVCAR-3 ovarian) | TGI (OVCAR-3 ovarian) | TGI (OVCAR-4 ovarian) | GI50 (OVCAR-4 ovarian) |
| --- | --- | --- | --- | --- | --- | --- | --- | --- | --- | --- | --- | --- | --- | --- | --- | --- | --- | --- | --- | --- |
| CC(C)c1c(C(=O)Nc2ccccc2)c(-c2ccccc2)c(-c2ccc(F)cc2)n1CC[C@@H]1CC=CC(=O)O1 | 0.39 µM | 2.44 µM | 1 µM | 2.48 µM | 2.62 µM | 6.98 µM | 1.43 µM | 2.78 µM | 1.31 µM | 3.86 µM | 1.78 µM | 4.01 µM | 2.05 µM | 4.21 µM | 1.61 µM | 3.14 µM | 1.8 µM | 3.31 µM |  |  |
| COC(c1cccc(C(O)(C(F)(F)F)C(F)(F)F)c1)(C(F)(F)F)C(F)(F)F |  |  |  | 34 µM |  | 40.5 µM |  | 32.1 µM |  |  |  |  |  | 41.5 µM |  | 33.3 µM |  | 38 µM | 30.4 µM |  |
| CCOC(=O)N1C2C=C(C)C(ON2C(=O)c2ccccc2)C2C(C)C(=O)N21 (stereo not given) |  | > 100 µM |  | > 100 µM |  | > 100 µM |  | > 100 µM |  |  |  |  |  | > 100 µM |  | > 100 µM |  | > 100 µM | > 100 µM |  |
| CC(=O)CCc1ccc(OC2OC(COC(=O)c3cc(O)c(O)c(O)c3)C(O)C(O)C2OC(=O)/C=C/c2ccccc2)cc1 (stereo not given) | 20.7 µM | 52.2 µM | 18.6 µM | 37.4 µM | 17.2 µM | 48.7 µM |  |  | 33.4 µM | > 100 µM | 22.7 µM | 47.1 µM | 21 µM | 43.5 µM | 26.4 µM | 44.8 µM | 23.8 µM | 72.4 µM | 89.7 µM | 23.8 µM |
| Cc1cc(NCCCNc2ccnc3cc(Cl)ccc23)nc(N2CCN(C)CC2)n1 | 2.59 µM | 14.7 µM | 1.94 µM | 3.61 µM | 2.46 µM | 15.8 µM | 13 µM | 34.4 µM |  |  | 2.77 µM | 28.4 µM | 2.66 µM | 10.4 µM | 1.84 µM | 3.6 µM | 5.79 µM | 25.7 µM | 44.5 µM | 4.03 µM |
| N#CC(/C(=N/NC(=O)C(=O)NN)C(=O)Nc1nc([N+](=O)[O-])cs1)c1ccc(Cl)cc1 (stereo not given) |  | > 100 µM |  | > 100 µM |  | > 100 µM |  | > 100 µM |  |  |  |  |  | > 100 µM |  |  |  | > 100 µM | > 100 µM |  |
| Cc1ccccc1C1=[N+]([O-])c2ccccc2C1=O |  | 54.5 µM |  | 32.4 µM |  | 49.2 µM |  | 47 µM |  |  |  |  |  | 37.3 µM |  | 33.7 µM |  | 25.2 µM |  |  |
| COc1ccc2c(c1)C(=O)N1CCOC1C2C(=O)O (stereo not given) |  | > 100 µM |  | > 100 µM |  | > 100 µM |  | > 100 µM |  |  |  |  |  | > 100 µM |  | > 100 µM |  | > 100 µM | > 100 µM |  |
| O=C(C=Nc1ccccc1C(=O)[O-])c1cccs1.O=C(C=Nc1ccccc1C(=O)[O-])c1cccs1.[Co+2] |  | > 100 µM |  | > 100 µM |  | > 100 µM |  |  |  |  |  |  |  | > 100 µM |  | > 100 µM |  | 95.1 µM |  |  |
| O=c1cc(-c2ccccc2)oc2cc(O)c(O)c(O)c12 | 2.39 µM | > 100 µM | 22.9 µM | 92.2 µM | 53.7 µM | > 100 µM | > 100 µM | > 100 µM | 17.4 µM | > 100 µM |  |  | 7.99 µM | > 100 µM | 8.4 µM | 36.8 µM | 16 µM | 41.7 µM | > 100 µM | 47.1 µM |
